# Source: patent US20260103497A1, “DUAL GLP-1 AND GIP RECEPTOR AGONIST PHARMACEUTICAL COMPOSITION AND USE THEREOF” (BRIGHTGENE PTE. LTD., priority 2022, published 2026)
# Experiments:
# [1] = Solubility of the compound of formula I in compositions with sodium chloride or propylene glycol; format: physicochemical; settings: disodium hydrogen phosphate dodecahydrate, pH 7, water for injection
# Description: It is worth mentioning that in polypeptide-based preparations, sodium chloride is believed to play a role in maintaining electrolyte balance and stabilizing polypeptide structures, and it is present as a stabilizer in a variety of existing polypeptide-based preparations.
# GLP-1 receptor = GLP-1 receptor (Homo sapiens, UniProt P43220); test: Preclinical agonistic effect on GLP-1 receptor; settings: greater activity compared to Tirzepatide; preclinical studies
# GIP receptor = molecular target: T1, GIP receptor (Homo sapiens, UniProt P48546); test: Preclinical agonistic effect on GIP receptor; settings: greater activity compared to Tirzepatide; preclinical studies
# T1 sequence (P48546 22-466): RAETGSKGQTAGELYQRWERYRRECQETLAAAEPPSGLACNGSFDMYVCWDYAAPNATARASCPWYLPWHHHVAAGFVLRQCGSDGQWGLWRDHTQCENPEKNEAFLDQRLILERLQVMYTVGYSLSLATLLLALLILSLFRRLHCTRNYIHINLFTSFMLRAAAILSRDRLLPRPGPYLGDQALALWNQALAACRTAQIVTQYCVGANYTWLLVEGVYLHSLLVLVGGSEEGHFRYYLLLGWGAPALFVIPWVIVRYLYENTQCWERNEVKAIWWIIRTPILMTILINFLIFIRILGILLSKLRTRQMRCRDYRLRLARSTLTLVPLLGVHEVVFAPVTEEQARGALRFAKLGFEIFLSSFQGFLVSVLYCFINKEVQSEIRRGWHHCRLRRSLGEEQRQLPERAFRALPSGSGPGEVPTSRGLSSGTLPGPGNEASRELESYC
# plasma proteins = test: Plasma protein binding; format: in vitro ADME; settings: plasma proteins from all species
# [2] = Pre-clinical pharmacokinetics in rats; settings: rat, in vivo
# [3] = Pre-clinical pharmacokinetics in cynomolgus monkeys; settings: cynomolgus monkey, in vivo
# Sequence of GLP-1 receptor (P43220 24-463, species assumed): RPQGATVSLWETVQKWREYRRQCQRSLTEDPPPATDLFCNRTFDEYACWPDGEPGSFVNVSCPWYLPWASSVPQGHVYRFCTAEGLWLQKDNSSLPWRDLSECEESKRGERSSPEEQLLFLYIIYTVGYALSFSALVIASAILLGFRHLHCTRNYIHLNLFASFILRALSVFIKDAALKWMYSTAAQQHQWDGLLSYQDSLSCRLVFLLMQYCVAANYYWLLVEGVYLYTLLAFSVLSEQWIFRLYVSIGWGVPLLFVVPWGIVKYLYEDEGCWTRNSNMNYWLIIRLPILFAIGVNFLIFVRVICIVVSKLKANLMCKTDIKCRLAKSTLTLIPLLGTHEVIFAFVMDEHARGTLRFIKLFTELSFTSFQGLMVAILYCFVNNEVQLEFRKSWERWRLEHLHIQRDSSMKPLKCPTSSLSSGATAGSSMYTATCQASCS
structure (smiles),measurement,setting,value
NC(=O)C(CCCCNC(=O)COCCOCCOCCNC(=O)COCCOCCOCCNC(=O)CCC(NC(=O)CC(=O)O)C(=O)O)NN[C@H](C=O)CO (stereo partly shown) [Compound of formula I],solubility,"[1]; pH 7, propylene glycol as stabilizer (14 mg in 1 mL)",≥ 30000 µg/mL
same,solubility,[1]; sodium chloride instead of propylene glycol (16.4 mg in 2 mL),150 µg/mL
same,agonistic activity on GLP-1 receptor compared to Tirzepatide,GLP-1 receptor,2- to 3 fold
same,agonistic activity on GIP receptor compared to Tirzepatide,GIP receptor,2- to 3 fold
same,binding rates to plasma proteins,plasma proteins,over 99.4%
same,half-life,[2],~14 h
same,half-life,[3],~40 h
